Molecular target: T1, 5-HT4 receptor (Cavia porcellus, UniProt O70528)
T1 construct: Longitudinal muscle-myenteric plexus preparations, approximately 3 cm long, are obtained from the distal colon region; from tissue; host or cells: guinea-pig distal colon longitudinal muscle-myenteric plexus
Experiment: Guinea pig colon 5-HT4 receptor antagonist activity (5-HT evoked contraction of longitudinal muscle-myenteric plexus)
Details: guinea-pig distal colon longitudinal muscle-myenteric plexus; contractions evoked by 5-HT; methiothepin 10^-7M and granisetron 10^-6M present; read-out: pIC50 (-log concentration of antagonist which reduces the contraction by 50%) (converted)
Description: 5-HT4 Receptor Antagonist Activity
Male guinea-pigs, weighing 250-400 g are used. Longitudinal muscle-myenteric plexus preparations, approximately 3 cm long, are obtained from the distal colon region. These are suspended under a 0.5 g load in isolated tissue baths containing Krebs solution bubbled with 5% CO2 in O2 and maintained at 37° C. In all experiments, the Krebs solution also contains methiothepin 10^-7M and granisetron 10^-6M to block effects at 5-HT1, 5-HT2 and 5-HT3 receptors.
After construction of a simple concentration-response curve with 5-HT, using 30 s contact times and a 15 min dosing cycle, a concentration of 5-HT is selected so as to obtain a contraction of the muscle approximately 40-70% maximum(10^-9M approx). The tissue is then alternately dosed every 15 min with this concentration of 5-HT and then with an approximately equi-effective concentration of the nicotine receptor stimulant, dimethylphenylpiperazinium (DMPP). After obtaining consistent responses to both 5-HT and DMPP, increasing concentrations of a putative 5-HT4 receptor antagonist are then added to the bathing solution. The effects of this compound are then determined as a percentage reduction of the contractions evoked by 5-HT or by DMPP. […] A compound which reduces the response to 5-HT but not to DMPP is believed to act as a 5-HT4 receptor antagonist.

T1 sequence (O70528 whole entry): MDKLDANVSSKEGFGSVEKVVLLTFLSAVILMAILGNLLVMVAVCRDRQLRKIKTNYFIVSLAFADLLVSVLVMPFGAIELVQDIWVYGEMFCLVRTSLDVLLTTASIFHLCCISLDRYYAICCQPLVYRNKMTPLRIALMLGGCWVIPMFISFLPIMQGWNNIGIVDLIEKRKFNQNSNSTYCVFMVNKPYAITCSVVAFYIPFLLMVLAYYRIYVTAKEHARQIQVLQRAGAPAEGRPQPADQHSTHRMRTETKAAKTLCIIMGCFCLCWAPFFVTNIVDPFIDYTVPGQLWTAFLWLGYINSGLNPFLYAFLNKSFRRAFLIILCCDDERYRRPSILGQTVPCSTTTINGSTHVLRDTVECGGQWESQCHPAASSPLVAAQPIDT

IC50: 158 nM
Compound: CCCCN1CCC(CCC(=O)c2cn(C)c3ccccc23)CC1 [Example 1, 1-(1-Methyl-1H-indol-3-yl)-3-(1-butylpiperidin-4-yl)propan-1-one]

— patent publication US20060094702A1, “5-HT4 receptor antagonists” (SMITHKLINE BEECHAM P.L.C., priority 1993, published 2006)
